The source of these data is paper PMC5904165, “Insight into the cold adaptation and hemicellulose utilization of Cladosporium neopsychrotolerans from genome analysis and biochemical characterization” (Scientific Reports, 2018).

In assay [1] the test system is T1, Xyl43A.
T1 construct: intracellular enzyme
The assay is described as follows: p-nitrophenol release, Michaelis-Menten fit. Type of assay: biochemical, Cladosporium neopsychrotolerans. Conditions: 35 °C (optimum), optimal pH; 1-10 mM pNPX used, so the table's unit mg/mL may be doubtful. An excerpt: p-nitrophenol release, Michaelis-Menten fit on Xyl43A

Assay [2] deals with T1, Xyl43A. As to the kind of experiment: inhibition of pNPX hydrolysis, Dixon plot. Type of assay: biochemical, Cladosporium neopsychrotolerans. To be noted: pNPX substrate, McIlvaine buffer pH 6.8, room temperature, 10 min; mode not stated.

With `O=[N+]([O-])c1ccc(O[C@@H]2OC[C@@H](O)[C@H](O)[C@H]2O)cc1` [pNPX], the “Xyl43A / 35 °C (Topt)” value in the assay with Xyl43A [1] turned out to be 2.73 ± 0.37 mg/mL.

For the compound `OC1OC[C@@H](O)[C@H](O)[C@H]1O` (stereo partly drawn) [D-xylose], at Xyl43A [2], the affinity corresponds to a Ki of 43.3 mM.
